Data set [1] is described as follows: Solubility determination in purified water at 25° C. It counts as physicochemical. The conditions noted are these: HPLC assay. On the procedure: Excess of (R)-N-[5-methyl-8-(4-methylpiperazin-1-yl)-1,2,3,4-tetrahydro-2-naphthyl]- 4-morpholinobenzamide or it's corresponding salts was added to purified water. The solution was agitated overnight in a water bath, kept at 25° C. by using a thermostat (Julabo SW and U3, 60 strokes/min). The saturated solution was centrifuged and filtered through a 0.45 .quadrature.m Gelman GHP Acrodisc® 13 filter, diluted and assayed by HPLC.

Data set [2] is described as follows: Solubility and release rate of the base (background statement). It counts as physicochemical. Particulars: base form.
The mark [3] stands for this setting: water, salts, read-out: Solubility mg/mL (Solubility in Water at 25° C. for different salts).
The mark [4] stands for this setting: rate is different in the stomach and the intestines.

SMILES strings stand for the structures. In brackets after ≈: the same amount, converted by molar mass. Like-named read-outs stand apart in the source and are kept apart here.

For the compound `Cc1ccc(N2CCN(C)CC2)c2c1CC[C@@H](NC(=O)c1ccc(N3CCOCC3)cc1)C2` [L-Ascorbate, (R)-N-[5-Methyl-8-(4-methylpiperazin-1-yl)-1,2,3,4-tetrahydro-2-naphthyl]-4-morpholinobenzamide L-Ascorbate], in data set [1] (salts), the “Solubility mg/mL (Solubility in Water at 25° C. for different salts)” value stood at 4.2 mg/mL.

Take `Cc1ccc(N2CCN(C)CC2)c2c1CC[C@@H](NC(=O)c1ccc(N3CCOCC3)cc1)C2` [Salicylate, (R)-N-[5-Methyl-8-(4-methylpiperazin-1-yl)-1,2,3,4-tetrahydro-2-naphthyl]-4-morpholinobenzamide Salicylate]: the “Solubility mg/mL (Solubility in Water at 25° C. for different salts)” value in data set [1] (salts) is 0.29 mg/mL.

On to `Cc1ccc(N2CCN(C)CC2)c2c1CC[C@@H](NC(=O)c1ccc(N3CCOCC3)cc1)C2` [Base, (R)-N-[5-Methyl-8-(4-methylpiperazin-1-yl)-1,2,3,4-tetrahydro-2-naphthyl]-4-morpholinobenzamide], for which the solubility in data set [1] (water, base, read-out: Solubility in Water) amounted to 0.034 mg/mL (≈ 75.8 µM).

`Br.Br.Cc1ccc(N2CCN(C)CC2)c2c1CC[C@@H](NC(=O)c1ccc(N3CCOCC3)cc1)C2` [Dihydrobromide, (R)-N-[5-methyl-8-(4-methylpiperazin-1-yl)-1,2,3,4-tetrahydro-2-naphthyl]-4-morpholinobenzamide dihydrobromide]: the solubility in data set [1] (setting [3]) was found to be 4.6 mg/mL.

As to `C[C@H](O)C(=O)O.Cc1ccc(N2CCN(C)CC2)c2c1CC[C@@H](NC(=O)c1ccc(N3CCOCC3)cc1)C2` [L-Lactate, (R)-N-[5-Methyl-8-(4-methylpiperazin-1-yl)-1,2,3,4-tetrahydro-2-naphthyl]-4-morpholinobenzamide L-Lactate], the solubility in data set [1] (salts, read-out: Solubility mg/mL (Solubility in Water at 25° C. for different salts)) was found to be 18.8 mg/mL.

On to `Cc1ccc(N2CCN(C)CC2)c2c1CCC(NC(=O)c1ccc(N3CCOCC3)cc1)C2` (racemic) [compound of formula I, N-[5-methyl-8-(4-methylpiperazin-1-yl)-1,2,3,4-tetrahydro-2-naphthyl]-4-morpholinobenzamide], for which, in data set [2] (setting [4]), the “pH dependence of release rate” value is recorded as “pH dependent” and the release rate entry is listed as “slow”. Also, the solubility in water entry in data set [2] (result in words) was “extremely low”.

As to `Cc1ccc(N2CCN(C)CC2)c2c1CC[C@@H](NC(=O)c1ccc(N3CCOCC3)cc1)C2.O=C(O)CO` [Glycolate, (R)-N-[5-Methyl-8-(4-methylpiperazin-1-yl)-1,2,3,4-tetrahydro-2-naphthyl]-4-morpholinobenzamide Glycolate], the solubility in data set [1] (setting [3]) was over 23.6 mg/mL.

These data come from patent US6291458A, “Morpholinobenzamide salts” (AstraZeneca AB, priority 1997, dated 2001).
